These results are taken from PubChem BioAssay (NCI).

Test systems include DLD-1 colon; DMS 114 small cell lung; DMS 273 small cell lung; HCC-2998 colon; HOP-92 NSCLC; KM12 colon; KM20L2 colon; OVCAR-8 ovarian; SK-MEL-5 melanoma; U251 CNS.
Holding throughout (test): NCI-60 cell line screen, 48 h

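Growth conditions: 96-well plates. Treatment: test compound, 48 hours, 5 concentrations. Analysis: linear interpolation between bracketing concentrations; unreached endpoints set to highest concentration. TGI marks complete inhibition of growth.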

`CCCCN(CCCC)C(=O)C(=O)C(C#N)c1ccc(C)cc1` (stereo unspecified): the TGI with DLD-1 colon, with DMS 114 small cell lung, in the test on DMS 273 small cell lung, in the test with HCC-2998 colon, in the test with HOP-92 NSCLC and in the test on KM12 colon was greater than 100 µM in each case. In addition, the TGI with KM20L2 colon, in the test with OVCAR-8 ovarian, in the test with SK-MEL-5 melanoma and in the test with U251 CNS was greater than 100 µM throughout.

For the molecule `N#CC1(Cc2ccc(N)cc2)c2ccccc2C=CN1C(=O)c1ccccc1` (stereo unspecified), the TGI in the test with DLD-1 colon, with DMS 114 small cell lung, in the test with DMS 273 small cell lung, with HCC-2998 colon, in the test on HOP-92 NSCLC and in the test with KM12 colon was greater than 100 µM each time. In addition, the TGI in the test on KM20L2 colon was greater than 100 µM; in the test with OVCAR-8 ovarian it was greater than 100 µM; in the test with SK-MEL-5 melanoma, 47.2 µM; in the test on U251 CNS, greater than 100 µM.

In the case of `O=C(N/N=C/c1ccccc1O)c1cccc([N+](=O)[O-])c1`, the TGI in the test with DLD-1 colon is greater than 100 µM; in the test on DMS 114 small cell lung it was 39.3 µM; in the test on DMS 273 small cell lung, greater than 100 µM; with HCC-2998 colon it was greater than 100 µM; in the test with KM12 colon, greater than 100 µM; in the test with KM20L2 colon it was greater than 100 µM. Besides, the results for the TGI in the test on OVCAR-8 ovarian, with SK-MEL-5 melanoma and with U251 CNS were greater than 100 µM, greater than 61.3 µM and greater than 100 µM, respectively.

Take `Cc1nc2c(nc1Cl)nc(Oc1ccc(Cl)cc1)c1ccccc12`: the TGI with DLD-1 colon, in the test with DMS 114 small cell lung, in the test with DMS 273 small cell lung, with HCC-2998 colon, with KM12 colon and in the test with KM20L2 colon was greater than 100 µM throughout. Further, the results for the TGI in the test on OVCAR-8 ovarian, with SK-MEL-5 melanoma and in the test on U251 CNS were 68.2 µM, greater than 100 µM and 40.6 µM, respectively.

As to `COc1ccc2[nH]c3c(C)c4c(c(C)c3c2c1)CN(C)CC4`, the TGI in the test with DLD-1 colon came to 93.7 µM; in the test with DMS 114 small cell lung it was 33.8 µM; in the test with DMS 273 small cell lung it was 29.6 µM; in the test with HCC-2998 colon, 31.4 µM; in the test with HOP-92 NSCLC, 32.2 µM; with KM12 colon, 27.1 µM. Besides, the TGI was found to be 34.8 µM in the test with KM20L2 colon, 25.8 µM in the test with OVCAR-8 ovarian, 32 µM in the test with SK-MEL-5 melanoma and 32 µM with U251 CNS.

As for `COC(=O)C[C@H]1CCC2(OCCO2)[C@]1(C)C(=O)OC`, the TGI in the test with DMS 114 small cell lung, with DMS 273 small cell lung, in the test on HOP-92 NSCLC, in the test on KM12 colon, with OVCAR-8 ovarian and in the test with SK-MEL-5 melanoma was greater than 100 µM each time. For the same molecule, the TGI in the test with U251 CNS was greater than 100 µM.

Consider `CCCCCCCCCCCCCC(=O)OC1CC(=O)OC1CO` (stereo unspecified), for which the TGI was greater than 100 µM in the test with DLD-1 colon; greater than 100 µM with DMS 114 small cell lung; greater than 100 µM with DMS 273 small cell lung; greater than 100 µM with HCC-2998 colon; 43.1 µM with HOP-92 NSCLC; 56.7 µM in the test on KM12 colon. Further, the TGI in the test with KM20L2 colon, in the test on OVCAR-8 ovarian, in the test with SK-MEL-5 melanoma and in the test on U251 CNS was greater than 100 µM throughout.

With `CC12CC[C@@H](C(C)(C)O)C1[C@@H](O)CC1(C)C2CCC2[C@@]3(C)CC[C@H](O)C(C)(C)C3C(O)C[C@]21C` (stereo partly specified), the TGI is 53.3 µM in the test on DLD-1 colon; 38.2 µM in the test with DMS 114 small cell lung; 36.2 µM with HCC-2998 colon; 37.5 µM with HOP-92 NSCLC; 38.1 µM in the test on KM12 colon; 28.3 µM in the test with KM20L2 colon. For the same molecule, the TGI with OVCAR-8 ovarian was 41.2 µM; with SK-MEL-5 melanoma, 21.3 µM; with U251 CNS it was 40 µM.

For the molecule `CCCCNC1=C(C(=O)OCC)C(=O)CO1`, the TGI in the test with DLD-1 colon, in the test with DMS 114 small cell lung, in the test on DMS 273 small cell lung, in the test with HCC-2998 colon, in the test on KM12 colon and in the test with KM20L2 colon was greater than 100 µM throughout. In addition, the TGI in the test with OVCAR-8 ovarian, in the test on SK-MEL-5 melanoma and with U251 CNS was greater than 100 µM throughout.

As to `CCCCCCCCCC[C@@H](O)[C@@H]1CC[C@H]([C@H]2CC[C@@H]([C@@H](O)CCCCCCCCCC[C@H]3CC(CC(C)=O)C(=O)O3)O2)O1` (stereo partly specified), the TGI with DLD-1 colon was 83 µM; with DMS 114 small cell lung, 19 µM; with DMS 273 small cell lung, 32.8 µM; in the test on HCC-2998 colon it was 47 µM; in the test with HOP-92 NSCLC it was 33.4 µM; in the test with KM20L2 colon, 52.7 µM. In addition, the TGI in the test on OVCAR-8 ovarian came to 37.8 µM; with SK-MEL-5 melanoma, 10.7 µM; in the test with U251 CNS, 43.8 µM.

In the case of `N=C1CSC2=NC3=C(CCC/C3=C\c3ccccc3)C(c3ccccc3)N12` (stereo unspecified), the TGI amounted to 19.4 µM with DLD-1 colon; 8.57 µM in the test with DMS 114 small cell lung; 15.8 µM in the test on DMS 273 small cell lung; 10.6 µM in the test with HCC-2998 colon; 13 µM with KM12 colon; 16.8 µM in the test on KM20L2 colon. Besides, the TGI with OVCAR-8 ovarian was 19.5 µM; in the test with SK-MEL-5 melanoma it was 19.3 µM; with U251 CNS, 13.6 µM.

As to `COc1ccc2ccc3c(c2c1)CN1CCc2cc(OC)c(OC)cc2C1C3` (stereo unspecified), the TGI in the test on DLD-1 colon, in the test on DMS 114 small cell lung, in the test on DMS 273 small cell lung, in the test with HCC-2998 colon, in the test on HOP-92 NSCLC and with KM12 colon was greater than 100 µM throughout. Besides, the TGI with KM20L2 colon, with OVCAR-8 ovarian, in the test on SK-MEL-5 melanoma and in the test on U251 CNS was greater than 100 µM in each case.

As for `COC(=O)CC(=O)C[P+](c1ccccc1)(c1ccccc1)c1ccccc1`, the TGI with DLD-1 colon, in the test on DMS 114 small cell lung, in the test with DMS 273 small cell lung, in the test on HCC-2998 colon, in the test with HOP-92 NSCLC and with KM12 colon was greater than 218 µM in each case. The TGI in the test on KM20L2 colon, in the test on OVCAR-8 ovarian, with SK-MEL-5 melanoma and with U251 CNS was greater than 218 µM in each case.

Consider `Cc1cc(N(CCOS(C)(=O)=O)CCOS(C)(=O)=O)ccc1C=Nc1ccc(-c2nc(Cc3ccccc3)sc2C)cc1`, for which the TGI was 31.9 µM in the test with DLD-1 colon; 27.7 µM with DMS 114 small cell lung; 21.7 µM in the test with DMS 273 small cell lung; 15.7 µM with HCC-2998 colon; 25.4 µM with HOP-92 NSCLC; 34 µM with KM12 colon. For the same molecule, the TGI was 21.2 µM in the test with KM20L2 colon, 41.8 µM in the test with OVCAR-8 ovarian, 26.7 µM with SK-MEL-5 melanoma and 22.8 µM with U251 CNS.
